Experimental data published in paper PMC9822194, “Chemoselective Synthesis of Mannich Adducts from 1,4-Naphthoquinones and Profile as Autophagic Inducers in Oral Squamous Cell Carcinoma” (Molecules, 2022).
Like-named read-outs stand apart in the source and are kept apart here.

Columns and labels:
[1] = system: SCC-9 (OSCC cells); experiment: MTT cell viability assay (cytotoxicity), SCC9; assay type: cell-based, Human; settings: for Selective Index (S.I.): IC50 normal oral fibroblasts/IC50 SCC-9
Procedure: (§1) Cells and reagents. Human SCC-4, SCC-9 and SCC-25 cells, derived from a human oral tongue SCC were obtained from the ATCC (CRL-1624; CRL-1629 and CRL-1628, respectively) and maintained at 1:1 DMEM/F12 (Dulbecco’s modified Eagle medium and Ham’s F12 medium; Gibco, Thermo Fisher, Waltham, MA, USA) supplemented with 10% (v/v) FBS (fetal bovine serum; Invitrogen, Thermo Fisher, Waltham, MA, USA) and 400 ng/mL hydrocortisone (Sigma-Aldrich Co., St. Louis, MO, USA). Primary normal human gingival fibroblasts were obtained from the ATCC (PCS-201-018), maintained in DMEM supplemented with 10% (v/v) FBS, and used in a maximum of 6 passages. Cells were grown in a humidified environment containing 5% CO2 at 37 °C. […] Carboplatin in water (Fauldcarbo®; Libbs Farmacêutica, São Paulo, SP, Brazil) was used as a standard anticancer compound.
(§2) Cell viability assay (cytotoxicity) and stability assay. To assess cell viability, cells were grown in triplicate in 96-well plates (5 × 10^3 cells/well) until confluence when treated with the different compounds as in Machado et al.. Briefly, DMSO in the same concentrations was used as a 100% cell viability control. After 48 h, cells were incubated with 5 mg/mL MTT reagent (3-(4,5-dimethyl-2-thiazolyl)-2,5-diphenyl-2H-tetrazolium bromide) (Sigma-Aldrich Co., St. Louis, MO, USA) for 3.5 h. Formazan crystals were dissolved in MTT solvent (DMSO/methanol 1:1 v/v) and the absorbance at 560 nm was evaluated using an EPOCH microplate spectrophotometer (BioTek Instruments, Winooski, VT, USA) with background absorbance at 670 nm subtracted. Each of the eighteen compounds was tested at six or seven different concentrations, ranging from 0.3 µM to 200 µM in cancer cell lines (SCC-4, SCC-9 and SCC-25) and 0.4 µM to 300 µM in normal primary human gingival fibroblast.
(§3) Statistical analysis, IC50 calculation. IC50 values for MTT assays were obtained by non-linear regression using the GraphPad Prism 5.0 software (GraphPad, San Diego, CA, USA) from at least three independent experiments. Data are presented as means ± SD. A dose-response (inhibitor) vs response curve using the least squares method was used to determine the IC50, SD and R2 of the data. The selectivity index was calculated as S.I. = IC50 of the compound in normal oral fibroblast cells/IC50 of the same compound for each oral cancer cell line (SCC-4, SCC-9 and SCC-25) and the mean was calculated when indicated.

[2] = system: normal human gingival fibroblasts; experiment: MTT cell viability assay, normal fibroblasts; assay type: cell-based; settings: 48 h
Procedure: as §1, §2, §3

[3] = system: SCC-25 cells; experiment: MTT cell viability assay, SCC25; assay type: cell-based, Human; settings: read-out: SCC25 IC50
Procedure: as §1, §2, §3

[4] = system: SCC-4 cells; experiment: MTT cell viability assay, SCC4; assay type: cell-based, Human; settings: read-out: SCC4 IC50
Procedure: as §1, §2, §3

[5] = system: OSCC cell lines (SCC 4, SCC-9 and SCC-25); experiment: MTT assay, mean over three OSCC cell lines and average selectivity index; assay type: cell-based, Human; settings: for IC50: mean of SCC9, SCC25, SCC4, read-out: Oral Tumor Cells Mean IC50; for Average S.I.: average selectivity index over SCC-4, SCC-9, SCC-25 vs normal fibroblasts
Procedure: as §2, §3

[6] = system: SCC9 cells; experiment: Stability test (pre-incubation at 37 °C, then MTT on SCC9); assay type: cell-based, Human; settings: 2 × IC50 pre-incubated 0-48 h at 37 °C, then SCC9 48 h
Procedure: After the desired treatment time was reached, the medium containing the compound was replaced with untreated culture medium and the MTT assay was performed at the end of both experiments.

[7] = system: SCC9 cells; experiment: Clonogenic assay, SCC9; assay type: cell-based, Human; settings: 2 × IC50, 5 days
Procedure: (§4) Clonogenic assay. The SCC9 strain and primary human fibroblasts were grown in duplicates in 24-well plates (5 × 10^4 cells/well) and incubated for 24 h. […] DMSO was used at the same concentrations as a control for 100% of viability. After 5 days of incubation, the culture medium was removed and the cells were fixed with absolute ethanol (500 µL) for 10 min, then stained with crystal 0.05% violet (Sigma Aldrich) in 20% ethanol (500 µL) for 10 min and washed with distilled water. The plates were scanned to quantify the inhibition of the formation of colonies. Then, crystal violet was solubilized in 33% acetic acid and added to the 96-well plate. Finally, the absorbance was read in a spectrophotometer (EPOCH, BioTek Instruments, Winooski, VT, USA) (595 nm).

[8] = system: primary human fibroblasts; experiment: Clonogenic assay, primary human fibroblasts; assay type: cell-based; settings: 2 × IC50, 5 days, normal fibroblasts
Procedure: as §4

[9] = MTT, 48 h, Table 1, read-out: SCC9—Oral Cancer IC50
[10] = MTT, Table 1, read-out: Primary Gengival Fibroblast IC50
[11] = Homo sapiens, SCC-9, MTT, 48 h, Table 1, read-out: SCC9—Oral Cancer IC50
[12] = Homo sapiens, Fibroblast, MTT, Table 1, read-out: Primary Gengival Fibroblast IC50

Compound	Selective Index (S.I.) [1]	IC50 [1, 9] [µM]	IC50 [2, 10] [µM]	IC50 [1, 11] [µM]	IC50 [2, 12] [µM]	other results
Methyl benzyl((4-nitrophenyl)(3-((methoxycarbonyl)oxy)-1,4-dioxo-1,4-dihydronaphthalen-2-yl)methyl)carbamate [6c]	2.63	56.1	148			
COC(=O)OC1=C(C(c2ccccc2)N(Cc2ccccc2)C(=O)OC)C(=O)c2ccccc2C1=O (stereo not shown) [5b, Methylbenzyl((3-((methoxycarbonyl)oxy)-1,4-dioxo-1,4-dihydronaphthalen-2yl)(phenyl)methyl)carbamate]	1.95			28.5	55.7	
COC(=O)OC1=C(C(c2cccc(Cl)c2)N(Cc2ccccc2)C(=O)OC)C(=O)c2ccccc2C1=O (stereo not shown) [5i, Methylbenzyl((3-chlorophenyl)(3-((methoxycarbonyl)oxy)-1,4-dioxo-1,4-dihydronaphthalen-2-yl)methyl)carbamate]	1.77			23.9	42.6	
COC(=O)OC1=C(C(c2ccc(C)cc2)N(Cc2ccccc2)C(=O)OC)C(=O)c2ccccc2C1=O (stereo not shown) [5f, Methylbenzyl((3-((methoxycarbonyl)oxy)-1,4-dioxo-1,4-dihydronaphthalen-2-yl)(p-tolyl)methyl)carbamate]	2.05			22.2	45.7	
Methyl benzyl((3-chloro-phenyl)(3-((methoxycarbonyl)oxy)-1,4-dioxo-1,4-dihydronaphthalen-2-yl)methyl)carbamate [6i]	1.03	70.7	73.5			
Methylbenzyl((3-((methoxycarbonyl)oxy)-1,4-dioxo-1,4-dihydronaphthalen-2-yl)(m-tolyl) methyl)carbamate [5h]	1.97	24.9	49.1			
COc1cccc2c1C(=O)c1c(O)c3c(c(O)c1C2=O)C[C@@](O)(C(=O)CO)C[C@@H]3O[C@H]1C[C@H](N)[C@H](O)[C@H](C)O1 [Doxorubicin]	2.57			7.2	18.7	IC50 ([3]; Homo sapiens, SCC-25, MTT, 48 h): 1.12 µM; IC50 ([4]; Homo sapiens, SCC-4, MTT, 48 h): 5.87 µM; IC50 ([5]; Homo sapiens): 4.73 µM; Average S.I. [5]: 3.94; Stability at 37 °C (retained cytotoxicity) [6]: stable even after 48 h
N.N.O=C([O-])C1(C(=O)[O-])CCC1.[Pt+2] [Carboplatin]	0.85	223	193			IC50 ([3]; MTT, 48 h): 264 µM; IC50 ([4]; MTT, 48 h): 195 µM; Average S.I. [5]: 0.85; Average S.I. ([5]; listed as carboplatin): 0.847; IC50 [5]: 228 µM; Cytotoxicity in clonogenic assay (colony formation) [7]: high cytotoxicity; Cells viable and able to form colonies [8]: less than 50%; Stability at 37 °C (retained cytotoxicity) [6]: stable even after 48 h
COC(=O)OC1=C(C(c2ccc(F)cc2)N(Cc2ccccc2)C(=O)OC)C(=O)c2ccccc2C1=O (stereo not shown) [5e, Methylbenzyl((4-fluorophenyl)(3-((methoxycarbonyl)oxy)-1,4-dioxo-1,4-dihydronaphthalen-2-yl)methyl)carbamate]	1.81			22.1	40.1	
COC(=O)N(Cc1ccccc1)C(C1=C(O)C(=O)c2ccccc2C1=O)c1ccc(F)cc1 (stereo not shown) [6e]	2.68			73.2	197	
Methyl benzyl((4-chlorophenyl)(3-((methoxycarbonyl)oxy)-1,4-dioxo-1,4-dihydronaphthalen-2-yl)methyl)carbamate [5a]	1.61	23.2	37.5			
COC(=O)OC1=C(C(c2ccc(OC)cc2)N(Cc2ccccc2)C(=O)OC)C(=O)c2ccccc2C1=O (stereo not shown) [5g, Methylbenzyl((3-((methoxycarbonyl)oxy)-1,4-dioxo-1,4-dihydronaphthalen-2-yl)(4-methoxyphenyl)methyl)carbamate]	1.68			21	35.5	
CC(C)=CCC1=C(O)C(=O)c2ccccc2C1=O [Lapachol, reference compound]	2.41					IC50 ([1]; Homo sapiens, SCC-9, 48 h, read-out: SCC9 IC50): 42.1 µM; IC50 ([1]; Homo sapiens, SCC-9, 48 h, read-out: SCC9—Oral Cancer IC50): 42.1 µM; IC50 ([2]; Homo sapiens, Fibroblast, read-out: Primary Gengival Fibroblast IC50): 102 µM; IC50 ([3]; Homo sapiens, SCC-25, 48 h): 85.9 µM; IC50 ([4]; Homo sapiens, SCC-4, 48 h): 55.3 µM; IC50 ([5]; Homo sapiens): 61.1 µM; Average S.I. [5]: 1.66
COC(=O)OC1=C(C(c2ccc([N+](=O)[O-])cc2)N(Cc2ccccc2)C(=O)OC)C(=O)c2ccccc2C1=O (stereo not shown) [5c, Methylbenzyl((3-((methoxycarbonyl)oxy)-1,4-dioxo-1,4-dihydronaphthalen-2-yl)(4-nitrophenyl)methyl)carbamate]	1.54			24.8	38.3	
Methyl benzyl((3-methyl-phenyl)(3-((methoxycarbonyl)oxy)-1,4-dioxo-1,4-dihydronaphthalen-2-yl)methyl)carbamate [6h]	4.83	11.1	53.7			IC50 ([2]; MTT, Table 2, read-out: Primary Gingival Fibroblast IC50): 53.7 µM; IC50 ([3]; MTT, 48 h): 56.6 µM; IC50 ([4]; MTT, 48 h): 98.4 µM; Average S.I. [5]: 1.29
Methyl benzyl((phenyl)(3-((methoxycarbonyl)oxy)-1,4-dioxo-1,4-dihydronaphthalen-2-yl)methyl)carbamate [6b]	2.79	82.2	230			
COC(=O)OC1=C(C(c2ccc(Br)cc2)N(Cc2ccccc2)C(=O)OC)C(=O)c2ccccc2C1=O (stereo not shown) [5d, Methylbenzyl((4-bromophenyl)(3-((methoxycarbonyl)oxy)-1,4-dioxo-1,4-dihydronaphthalen-2-yl)methyl)carbamate]	1.78			38.8	69.1	
